Laboratory results: patent US12064453B2, “Biochemical and biomechanical conditioning for enhancing personalized mesenchymal stem cell therapies” (BOARD OF REGENTS, THE UNIVERSITY OF TEXAS SYSTEM, priority 2017, dated 2024)

Key:
[1] = tested on: Human mesenchymal stem cells (hMSCs); assay: Long term conditioning of hMSCs with biochemical factors and mechanical load, immunostaining; format: cell-based; conditions: seven days; for paxillin levels: with and without load (0.1 Hz, 7.5% strain, 4 hours daily); for endothelial marker vWF: in combination with mechanical loading
Protocol: Human mesenchymal stem cells (hMSCs; Millipore) were cultured in low glucose DMEM medium supplemented with 15% fetal bovine serum, L-glutamine, and penicillin/streptomycin. Following trypsinization, cells were seeded on the membranes at 4,000 cells per cm^2 before mechanical loading. Immunocytochemical staining. Cells were fixed in 4% paraformaldehyde in PBS for 10 min followed by washing and permeabilization with 0.1% Triton X-100 PBS for 5 min. Next, samples were blocked with 1% BSA 5% FBS in PBS for 40 min. After washing, cells were incubated with primary antibodies (Table 1) overnight at 4° C. The next day, samples were washed in 1% BSA in PBS and was incubated with secondary antibodies and DAPI staining for 2 hours in a light protected environment. For actin staining, an alternative step was used in which samples were treated with Alexa 594 conjugated phalloidin for 30 min. Cells were washed thoroughly before they were imaged. For standard fluorescent microscopy, Zeiss Observerl was used. […] Long term conditioning of hMSCs using biochemical factors. For long term loading, cells were exposed to media containing small biomolecules (Table 3). They were loaded for 4 hours every day for 7 days under sine and brachial waveform at 0.1 Hz and 7.5% maximum strain and compared against those in static culture. Media containing the biomolecules were replaced on day 3 and day 5, with the exception of 5-Aza containing media. Due to the cytotoxic nature of 5-Aza, it was replaced with normal media on day 1. On day 6, media was replaced with 0.5% FBS containing media post loading. Following long term loading on day 7, the condition media was collected and further assays were performed on the cells. To examine the ability of long term application of mechanical loading in conditioning MSCs, the cells were treated with treatments known to cause differentiation into vascular/cardiovascular phenotypes including 5-azacitidine (5-aza), Dexamethasone with insulin (Dex+Ins), PDGF-BB, hydrocortisone (Hydrocort), EGF, VEGF-A, and TGF-β1.

[2] = tested on: Human mesenchymal stem cells (hMSCs); assay: Oil Red O or Alizarin Red staining for adipogenic and osteogenic differentiation; format: cell-based
Protocol: Long term conditioning of hMSCs using biochemical factors. For long term loading, cells were exposed to media containing small biomolecules (Table 3). They were loaded for 4 hours every day for 7 days under sine and brachial waveform at 0.1 Hz and 7.5% maximum strain and compared against those in static culture. Media containing the biomolecules were replaced on day 3 and day 5, with the exception of 5-Aza containing media. Due to the cytotoxic nature of 5-Aza, it was replaced with normal media on day 1. On day 6, media was replaced with 0.5% FBS containing media post loading. Following long term loading on day 7, the condition media was collected and further assays were performed on the cells. […] To test for adipogenic and osteogenic differentiation, the cells were also stained using Oil Red O or Alizarin Red dye.

Smad2/3 = assay: Smad transcription factor activity, multi-strain mechanical loading; format: cell-based, human; conditions: MSCs; 0.1 Hz, 7.5% strain, 24 hours, co-treatment
Protocol: Transcription factor activity assay.
To perform a high throughput assay of the dependence of magnitude of mechanical strain on the activation of Smad2/3, the heights of the individual pistons were adjusted to apply mechanical strains over a range of 0 to 17.5% strain, in increments of 2.5% strain (FIGS. 2B-D). […] The regulation of differentiation-related pathways in MSCs was examined by loading the cells for 24 hours under multi-strain conditions at 0.1 Hz and performing immunostaining. A maximal increase in nuclear to cytoplasmic Yap/Taz was found at 7.5% strain and maximal nuclear localization of Smad2/3 at 10-12.5% strain (FIG. 2F). In addition, there was a maximal increase in α-SMA expression in the range of strains from 7.5-12.5% strain (FIG. 2G). At 10-15% strain, there was a maximal increase in polymerized actin and paxillin (FIG. 2G). The mechanical loading was repeated at 7.5% strain with 0.1 Hz frequency using both sine and brachial waveforms and then performed western blotting. With brachial waveform loading, increases in PECAM-1 expression were found and as well as a reduction in α-SMA expression and an increase in p-Smad 2/3 (FIGS. 2H, I). Overall, these studies support maximal activation of Smad signaling in MSCs with 0.1 Hz of loading at 7.5% strain, with an increase in endothelial-like phenotype with brachial loading.

TCF/LEF = conditions: MSCs; loading at 0.1 Hz with VEGF treatment; 10 ng/ml; 8 hours
Protocol: (§1) Transcription factor activity assay. The cells were transduced with luminescent reporter vectors for target transcription factors. Briefly, for each target transcription factor, freshly passaged hMSCs were treated with luciferase reporter expressing lentiviruses (Qiagen). For the drug screening assay, hMSCs were treated with biomolecules in the kinase inhibitor library (Millipore Calbiochem) 1 hour prior to loading. After mechanical loading, the cells were lysed and the relative luminescent signal was measured using the luciferase assay kit (Promega) with FlexStation-3 plate reader (Molecular Devices). For each plate, average from three individual readings was reported.
(§2) A major limitation of previous studies in mechanobiology is the limited ability to investigate a variety of conditions simultaneously. This gap in capability leads to an incomplete exploration of the range of mechanical conditions and greatly reduces the ability to examine synergy between applied mechanical forces and biochemical signals. Mesenchymal stem cells were transduced with lentiviruses expressing luciferase reporter constructs for transcription factors including FOXO, TCF/LEF, Smad2/3 and SRE and selected these to obtain a stable reporter cell line. […]

FOXO = conditions: MSCs; VEGF at 2 Hz frequency of loading (5% maximal strain) or at 1 Hz; 10 ng/ml; 8 hours
Protocol: as §1, §2

[3] = tested on: Human mesenchymal stem cells (hMSCs); conditions: long term conditioning
Text: Fluorescence Activated Cell Sorting (FACS). After long term loading, the cells were then detached from the loading plate using accutase (Sigma) and was labeled with fluorescent antibodies according the BD Bioscience FACS staining kit (BD 562725) for cardiovascular phenotypes such as endothelial, smooth muscle, and pericyte phenotypes. […] Fortessa of UT Austin Core Facility was used to measure population fluorescent signals.
To address these issues, a combinatorial set of mechanical loading and biochemical or pharmacological treatments were applied to MSCs and the phenotype assessed using multiple markers using FACS (FIG. 5A).

Compound	PECAM-1 ([1]; in combination with mechanical load)	paxillin levels [1]	endothelial marker vWF [1]	Osteogenesis (Alizarin Red) ([2]; static conditions)	Osteogenesis (Alizarin Red) ([2]; with mechanical loading)	nuclear localization of Yap/Taz ([1]; with mechanical loading, in comparison to other treatment groups)	Smad transcription factor activity (Smad2/3)	TCF/LEF transcription factor activity (TCF/LEF)	FOXO transcription factor activity (FOXO)	endothelial lineage defined by the FACS protocol [3]
Nc1ncn([C@@H]2O[C@H](CO)[C@@H](O)[C@H]2O)c(=O)n1 [5-aza, 5-Azacytidine]	increased	increased paxillin levels								
EGF [growth factor, Sigma-Aldrich E9644, 10 ng/mL]		increased paxillin levels	to a lesser extent							
TGF-β1		not increased		observed	did not occur	markedly reduced	optimal synergistic activation			
VEGF		increased paxillin levels	to a lesser extent					synergistically activated	reduction in FOXO activity	did not increase
